Experimental data from patent US20060134056A1, “Use of alkylguanidines as cationic emulsifiers” (G[…], priority 2004, published 2006).

Assay: storage stability of O/W emulsions
Format: physicochemical
Settings: O/W emulsion with 0.5% emulsifier; room temperature, 45° C. and freeze-thaw cycles (3×−15° C.)
Experimental: Here, it was paaticulaily surprising that stable emulsions were obtainale even at emulsifier concentrations of 0.5% stearylguanidinium acetate (6 months stability at room temperature, 45° C. and freeze-thaw cycles (3×−15° C.)).
In addition, emulsions 7 to 8 also illustrate the excellent emulsifying properties of other alkylguanidinium salts.

CC(=O)O.CCCCCCCCCCCCCCCCCCNC(=N)N [stearylguanidinium acetate]
stability of emulsion: 6 months
